Laboratory results as given in patent US20170002373A1, “METHOD OF PRODUCING LEAFY BIOMASS” (Imperial Innovations Limited, priority 2009, published 2017).

How the values were obtained:
GFP-6 calli = assay: Shoot induction from transplastomic calli on solid MS medium; assay type: cell-based, Nicotiana tabacum Petit Havana; conditions: data not shown; for shoot formation from calli: GFP-6 calli grown on solid MS medium with TDZ, shoots after 6 weeks
[1] = system: transplastomic cell suspensions from the tobacco GFP-6 line; assay: Shoot/leafy biomass production from cell suspensions in temporary immersion bioreactor; assay type: cell-based, Nicotiana tabacum Petit Havana; conditions: 2-L temporary immersion bioreactor, MS media supplemented with 0.1 μM TDZ, after about six weeks
Procedure: Given that transplastomic gene expression seemed to be highest in leaf tissue we sought to develop a method for the rapid production of leaf tissue from callus/cell suspensions. […] In order to scale up the production capacity, transplastomic cell suspensions from the tobacco GFP-6 line were loaded into a 2-L bioreactor and temporally submerged in MS media supplemented with 0.1 μM TDZ. […] During the first 14 days, no growth could be detected and shoots only started to grow after this period. Possibly this lag period is related to the time needed for cells to redifferentiate from callus tissue to leafy tissue in tobacco in a similar manner to the observed switch between calli and meristematic tissues in Arabidopsis thaliana (Gordon et al, 2007).
Tobacco biomass was generated by placing about 7 grams of Nicotiana tabacum Petit Havana cell suspensions in a 2-L temporary immersion bioreactor (Ducos et al, 2007). Immersions were performed over a 40-day period with 1-L MS media supplemented with 0.1 μM Thidiazuron (TDZ, Sigma, UK) every three hours for 5 min. Additionally, the media contained 100 mg/L of spectinomycin to prevent contamination and to select for transplastomic cells. The TDZ (Thidiazuron) concentration in MS media was estimated to be optimal at 0.1 μM by researchers in Nestle, based on calli solid induction in Petri dishes (data not shown). […]

## O=C(Nc1ccccc1)Nc1cnns1 [Thidiazuron]
GFP-6 calli
  shoot formation from calli: able to induce shoot formation
GFP-6 calli; listed as thidiazuron
  shoot formation from calli: induced the formation of shoots from calli
GFP-6 calli; based on calli solid induction in Petri dishes, estimated by researchers in Nestle
  optimal TDZ concentration in MS media: 0.1 µM
[1]
  shoot formation from cell suspensions: a large number of shoots were produced
